From US8765767B2, “Positive allosteric modulators of mGluR2” (Bristol-Myers Squibb Company, priority 2012, dated 2014)

Experiments:
human mGluR2 = molecular target: T1, human mGluR2 (Homo sapiens, UniProt Q14416); experiment: mGluR2 cAMP assay (HTRF) in HEK293 cells clonally expressing human mGluR2; format: cell-based; settings: HEK293 cells expressing human mGluR2, 1 μM forskolin, 1 μM LY-341495, 30 min
T1 construct: expressed in transfected cells; host or cells: HEK293 clonal line
Procedure: • Cell Culture. Clonally expressed human mGluR2 in HEK293 background was glutamate starved overnight in media without glutamine (GIBCO MEM 12360), containing 10% FBS, 1% penicillin streptomycin. • cAMP Measurement. On the day of the assay, media was removed, cells washed with PBS, cells harvested and pelleted by centrifugation. Cell pellets were resuspended in stimulation buffer without forskolin and counted. A solution of 1.25×10^6 cells/mL was prepared and dispensed to plates using a Combi liquid handler (Thermo). A standard curve was created using a top concentration of cAMP of 1 μM in the stimulation buffer, 1:3 dilutions over 14 points in the absence of cells. Plates were read by time-resolved fluorescence at […] and a ratio was calculated via in house software, (665 nM/618 nM)*10^4. In house software converted the fluorescence value ratios to units of cAMP concentration, which is then used to calculate % inhibition for each test compound. • MGluR2 cAMP Assay Materials and Methods. Compounds were added to white, standard volume 384 non-binding surface plates (Corning 3574). Cells were resuspended in stimulation buffer consisting of Hanks Balanced Salt Solution (14175-095) pH 7.0, 20 mM HEPES, 2.0 mM CaCl2, 5.0 mM MgCl2, and 1 mM IBMX (Sigma 15879), 1 μM forskolin, and 1 μM LY-341495 for 30 min. Buffer without forskolin was used as a negative control. Solutions of D2 and cryptate detection reagents from the CISBIO dynamic cAMP kit (62AM4PEJ) were diluted 1:40 in lysis buffer. Lysis buffer consisted of 50 mM Phosphate Buffer pH 7.0, 800 mM Potassium Fluoride, 0.2% BSA, and 1.0% Triton. Assay reaction was terminated by addition of detection reagents in lysis buffer. One hour later, plates were read on a PE Viewlux. Data was extracted, and concentration response curves generated by fitting the data to a standard 4 parameter logistic equation from which EC50 values were determined.

mGluR2/3 [1] = settings: rats treated with PCP; cited from earlier work
mGluR2/3 [2] = settings: GAD patients; cited from earlier work
mGluR2/3 [3] = settings: schizophrenia patients; cited from earlier work

T1 sequence (Q14416 19-872): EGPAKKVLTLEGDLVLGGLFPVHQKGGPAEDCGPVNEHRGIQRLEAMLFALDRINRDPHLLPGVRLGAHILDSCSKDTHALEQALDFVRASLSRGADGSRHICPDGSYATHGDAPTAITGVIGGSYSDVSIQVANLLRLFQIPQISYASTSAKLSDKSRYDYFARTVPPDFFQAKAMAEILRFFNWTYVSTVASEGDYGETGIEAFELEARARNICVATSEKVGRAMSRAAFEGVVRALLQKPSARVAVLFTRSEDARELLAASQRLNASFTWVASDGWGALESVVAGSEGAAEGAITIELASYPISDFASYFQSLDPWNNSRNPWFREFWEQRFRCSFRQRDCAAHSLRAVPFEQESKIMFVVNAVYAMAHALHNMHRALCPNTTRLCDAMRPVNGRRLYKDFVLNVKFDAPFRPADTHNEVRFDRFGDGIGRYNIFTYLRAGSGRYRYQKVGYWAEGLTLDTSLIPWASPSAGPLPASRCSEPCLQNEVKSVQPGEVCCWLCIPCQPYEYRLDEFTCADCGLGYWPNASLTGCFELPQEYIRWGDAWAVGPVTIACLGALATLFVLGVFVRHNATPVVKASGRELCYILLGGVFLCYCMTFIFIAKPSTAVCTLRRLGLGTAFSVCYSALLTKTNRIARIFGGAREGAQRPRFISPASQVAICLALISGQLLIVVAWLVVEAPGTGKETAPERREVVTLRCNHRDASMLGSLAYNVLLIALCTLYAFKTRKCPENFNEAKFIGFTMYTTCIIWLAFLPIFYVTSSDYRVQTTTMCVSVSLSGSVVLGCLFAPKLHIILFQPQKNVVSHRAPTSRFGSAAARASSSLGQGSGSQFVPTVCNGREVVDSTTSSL

| EC50 (human mGluR2) | SMILES | also measured |
| --- | --- | --- |
| 1 nM | Fc1ccc([C@@H]2C[C@H]2CNc2ccn3c(CC4CC4)nnc3c2C(F)(F)F)cc1 [Example 22, 3-(Cyclopropylmethyl)-N-(((1R,2R)-2-(4-fluorophenyl)cyclopropyl)methyl)-8-(trifluoromethyl)-[1,2,4]triazolo[4,3-a]pyridin-7-amine] |  |
| 41 nM | Fc1ccc(C2CC2CNc2ccn3c(CC(F)(F)F)cnc3c2C(F)(F)F)cc1 (stereo not shown) [Example 25, N-((2-(4-Fluorophenyl)cyclopropyl)methyl)-3-(2,2,2-trifluoroethyl)-8-(trifluoromethyl)imidazo[1,2-a]pyridin-7-amine] |  |
| 54 nM | N#Cc1c(NCC2CC2c2cccc(F)c2)ccn2c(CC(F)(F)F)cnc12 (stereo not shown) [Example 26, 7-(((2-(3-Fluorophenyl)cyclopropyl)methyl)amino)-3-(2,2,2-trifluoroethyl)imidazo[1,2-a]pyridine-8-carbonitrile] |  |
| 20 nM | COc1cccc(F)c1C1CC1CNc1ccn2c(CC(F)(F)F)cnc2c1C#N (stereo not shown) [Example 27, 7-(((2-(2-Fluoro-6-methoxyphenyl)cyclopropyl)methyl)amino)-3-(2,2,2-trifluoroethyl)imidazo[1,2-a]pyridine-8-carbonitrile] |  |
| 59 nM | N#Cc1c(NCC2CC2c2ccccc2OC(F)(F)F)ccn2c(CC(F)(F)F)cnc12 (stereo not shown) [Example 28, 3-(2,2,2-Trifluoroethyl)-7-(((2-(2-(trifluoromethoxy)phenyl)cyclopropyl)methyl)amino)imidazo[1,2-a]pyridine-8-carbonitrile] |  |
| 81 nM | COc1ccccc1C1CC1CNc1ccn2c(CC(F)(F)F)cnc2c1C#N (stereo not shown) [Example 29, 7-(((2-(2-Methoxyphenyl)cyclopropyl)methyl)amino)-3-(2,2,2-trifluoroethyl)imidazo[1,2-a]pyridine-8-carbonitrile] |  |
| 108 nM | N#Cc1c(NCC2CC2c2ccc(F)cc2)ccn2c(CC(F)(F)F)cnc12 (stereo not shown) [Example 30, 7-(((2-(4-Fluorophenyl)cyclopropyl)methyl)amino)-3-(2,2,2-trifluoroethyl)imidazo[1,2-a]pyridine-8-carbonitrile] |  |
| 1 nM | COc1cccc(F)c1[C@H]1C[C@@H]1CNc1ccn2c(CC3CC3)nnc2c1Cl [Example 33, 8-Chloro-3-(cyclopropylmethyl)-N-(((1S,2S)-2-(2-fluoro-6-methoxyphenyl)cyclopropyl)methyl)-[1,2,4]triazolo[4,3-a]pyridin-7-amine] |  |
| 1 nM | COc1cccc(F)c1[C@@H]1C[C@H]1CNc1ccn2c(CC3CC3)nnc2c1Cl [Example 34, 8-Chloro-3-(cyclopropylmethyl)-N-(((1R,2R)-2-(2-fluoro-6-methoxyphenyl)cyclopropyl)methyl)-[1,2,4]triazolo[4,3-a]pyridin-7-amine] |  |
| 3 nM | Clc1c(NC[C@H]2C[C@@H]2c2cccc3c2OCC3)ccn2c(CC3CC3)nnc12 [Example 35, 8-Chloro-3-(cyclopropylmethyl)-N-(((1S,2S)-2-(2,3-dihydrobenzofuran-7-yl)cyclopropyl)methyl)-[1,2,4]triazolo[4,3-a]pyridin-7-amine] |  |
| 2 nM | Clc1c(NC[C@@H]2C[C@H]2c2cccc3c2OCC3)ccn2c(CC3CC3)nnc12 [Example 36, 8-Chloro-3-(cyclopropylmethyl)-N-(((1R,2R)-2-(2,3-dihydrobenzofuran-7-yl)cyclopropyl)methyl)-[1,2,4]triazolo[4,3-a]pyridin-7-amine] |  |
| 4 nM | Fc1ccccc1[C@H]1C[C@@H]1CNc1ccn2c(CC3CC3)nnc2c1Cl [Example 37, 8-Chloro-3-(cyclopropylmethyl)-N-(((1S,2S)-2-(2-fluorophenyl)cyclopropyl)methyl)-[1,2,4]triazolo[4,3-a]pyridin-7-amine] |  |
| 4 nM | Fc1ccccc1[C@@H]1C[C@H]1CNc1ccn2c(CC3CC3)nnc2c1Cl [Example 38, 8-Chloro-3-(cyclopropylmethyl)-N-(((1R,2R)-2-(2-fluorophenyl)cyclopropyl)methyl)-[1,2,4]triazolo[4,3-a]pyridin-7-amine] |  |
| 1 nM | CN(C[C@H]1C[C@@H]1c1ccc(F)cc1)c1ccn2c(CC3CC3)nnc2c1C(F)(F)F [Example 39, 3-(Cyclopropylmethyl)-N-(((1S,2S)-2-(4-fluorophenyl)cyclopropyl)methyl)-N-methyl-8-(trifluoromethyl)-[1,2,4]triazolo[4,3-a]pyridin-7-amine] |  |
| 7 nM | CN(C[C@@H]1C[C@H]1c1ccc(F)cc1)c1ccn2c(CC3CC3)nnc2c1C(F)(F)F [Example 40, 3-(Cyclopropylmethyl)-N-(((1R,2R)-2-(4-fluorophenyl)cyclopropyl)methyl)-N-methyl-8-(trifluoromethyl)-[1,2,4]triazolo[4,3-a]pyridin-7-amine] |  |
| 2 nM | CN(C[C@H]1C[C@@H]1c1ccc(F)cc1)c1ccn2c(CC(F)(F)F)nnc2c1C(F)(F)F [Example 41, N-(((1S,2S)-2-(4-fluorophenyl)cyclopropyl)methyl)-N-methyl-3-(2,2,2-trifluoroethyl)-8-(trifluoromethyl)-[1,2,4]triazolo[4,3-a]pyridin-7-amine] |  |
| 2 nM | Fc1ccc(F)c([C@H]2C[C@@H]2CNc2ccn3c(CC4CC4)nnc3c2Cl)c1 [Example 43, 8-Chloro-3-(cyclopropylmethyl)-N-(((1S,2S)-2-(2,5-difluorophenyl)cyclopropyl)methyl)-[1,2,4]triazolo[4,3-a]pyridin-7-amine] |  |
| 2 nM | Fc1ccc(F)c([C@@H]2C[C@H]2CNc2ccn3c(CC4CC4)nnc3c2Cl)c1 [Example 44, 8-Chloro-3-(cyclopropylmethyl)-N-(((1R,2R)-2-(2,5-difluorophenyl)cyclopropyl)methyl)-[1,2,4]triazolo[4,3-a]pyridin-7-amine] |  |
|  | N[C@@]1(C(=O)O)CC[C@H]2[C@H](C(=O)O)[C@H]21 [LY-354740] | behavioral effects of PCP (hyper-locomotion, working memory deficits) (mGluR2/3 [1]): reversed the behavioral effects of PCP; brain glutamate levels (mGluR2/3 [1]): lowered brain glutamate levels |
|  | C[C@H](N)C(=O)N[C@@]1(C(=O)O)CC[C@H]2[C@H](C(=O)O)[C@H]21 [LY-544344] | therapeutic effect for anxiety (mGluR2/3 [2]): therapeutic effects |
|  | CSCC[C@H](N)C(=O)N[C@@]1(C(=O)O)CS(=O)(=O)[C@H]2[C@H](C(=O)O)[C@H]21 [LY-2140023] | relief of positive and negative symptoms (mGluR2/3 [3]): relief of positive and negative symptoms |
